Entries after “also recorded” stand apart in the source; their conditions may differ.

The assay relates to bacteria. Kind of assay: Binding of targeting peptides to microorganisms (Table 3). The settings on record: peptide binding in aqueous buffers varied by peptide solubility; preferably 1x PBS.
As for “1T-57 (RLEYRRLETQVEENPESGRRPMRG; Peptide with targeting and/or antimicrobial activity) [Peptide 1T-57]”, the “Target(s) (microorganism bound by the targeting peptide)” value is recorded as “P. aeruginosa”.

With “1T-58 (CDDLHALERAGKLDALLSA; Peptide with targeting and/or antimicrobial activity) [Peptide 1T-58]”, the “Target(s) (microorganism bound by the targeting peptide)” value is recorded as “P. aeruginosa”.

Regarding “1T-59 (AVGNNLGKDNDSGHRGKKHRKHKHR; Peptide with targeting and/or antimicrobial activity) [Peptide 1T-59]”, the “Target(s) (microorganism bound by the targeting peptide)” value is given as “S. aureus; also recorded: S. epidermidis; also recorded: P. aeruginosa”.

“1T-60 (YLTSLGLDAAEQAQGLLTILKG; Peptide with targeting and/or antimicrobial activity) [Peptide 1T-60]”: the “Target(s) (microorganism bound by the targeting peptide)” value is “S. aureus; also recorded: S. epidermidis; also recorded: C. jeikeium; also recorded: C. striatum; also recorded: P. aeruginosa”.

As to “1T-61 (HATLLPAVREAISRQLLPALVPRG; Peptide with targeting and/or antimicrobial activity) [Peptide 1T-61]”, the “Target(s) (microorganism bound by the targeting peptide)” value was “P. aeruginosa”.

As for “1T-62 (GCKGCAQRDPCAEPEPYFRLR; Peptide with targeting and/or antimicrobial activity) [Peptide 1T-62]”, the “Target(s) (microorganism bound by the targeting peptide)” value is reported as “S. epidermidis; also recorded: P. aeruginosa”.

With “1T-63 (EPLILKELVRNLFLFCYARALR; Peptide with targeting and/or antimicrobial activity) [Peptide 1T-63]”, the “Target(s) (microorganism bound by the targeting peptide)” value is on record as “S. aureus; also recorded: S. epidermidis; also recorded: C. jeikeium; also recorded: C. xerosis; also recorded: C. striatum; also recorded: P. aeruginosa”.

For “1T-64 (QTVHHIHMHVLGQRQMHWPPG; Peptide with targeting and/or antimicrobial activity) [Peptide 1T-64]”, the “Target(s) (microorganism bound by the targeting peptide)” value was “S. aureus; also recorded: S. epidermidis; also recorded: C. jeikeium; also recorded: C. xerosis; also recorded: C. striatum; also recorded: P. aeruginosa”.

With “1T-65 (HARAAVGVAELPRGAAVEVELIAAVRP; Peptide with targeting and/or antimicrobial activity) [Peptide 1T-65]”, the “Target(s) (microorganism bound by the targeting peptide)” value is reported as “S. mutans; also recorded: S. aureus; also recorded: S. epidermidis; also recorded: C. jeikeium; also recorded: C. xerosis; also recorded: C. striatum; also recorded: P. aeruginosa”.

With “1T-66 (DTDCLSRAYAQRIDELDKQYAGIDKPL; Peptide with targeting and/or antimicrobial activity) [Peptide 1T-66]”, the “Target(s) (microorganism bound by the targeting peptide)” value is “S. mutans; also recorded: S. aureus; also recorded: S. epidermidis; also recorded: C. jeikeium; also recorded: C. xerosis; also recorded: C. striatum; also recorded: P. aeruginosa”.

As for “1T-67 (GQRQRLTCGRVSGCSEGPSREAAR; Peptide with targeting and/or antimicrobial activity) [Peptide 1T-67]”, the “Target(s) (microorganism bound by the targeting peptide)” value is given as “S. aureus; also recorded: S. epidermidis; also recorded: C. jeikeium; also recorded: C. xerosis; also recorded: C. striatum; also recorded: P. aeruginosa”.

As to “1T-68 (GGTKEIVYQRG; Peptide with targeting and/or antimicrobial activity) [Peptide 1T-68]”, the “Target(s) (microorganism bound by the targeting peptide)” value is recorded as “S. mutans; also recorded: S. aureus; also recorded: C. jeikeium; also recorded: C. xerosis; also recorded: C. striatum; also recorded: P. aeruginosa”.

For the substance “1T-69 (ILSQEADRKKLF; Peptide with targeting and/or antimicrobial activity) [Peptide 1T-69]”, the “Target(s) (microorganism bound by the targeting peptide)” value was “S. mutans; also recorded: P. aeruginosa”.

Turning to “1T-70 (NRQAQGERAHGEQQG; Peptide with targeting and/or antimicrobial activity) [Peptide 1T-70]”, the “Target(s) (microorganism bound by the targeting peptide)” value is “S. aureus; also recorded: C. jeikeium; also recorded: P. aeruginosa”.

As to “1T-71 (KIDTNQWPPNKEG; Peptide with targeting and/or antimicrobial activity) [Peptide 1T-71]”, the “Target(s) (microorganism bound by the targeting peptide)” value was “P. aeruginosa”.

On to “1T-72 (EPTDGVACKER; Peptide with targeting and/or antimicrobial activity) [Peptide 1T-72]”, for which the “Target(s) (microorganism bound by the targeting peptide)” value was “P. aeruginosa”.

On to “1T-73 (GWWEELLHETILSKFKITKALELPIQL; Peptide with targeting and/or antimicrobial activity) [Peptide 1T-73]”, for which the “Target(s) (microorganism bound by the targeting peptide)” value is on record as “S. pneumoniae”.

For the substance “1T-74 (DIDWGRKISCAAGVAYGAIDGCATTV; Peptide with targeting and/or antimicrobial activity) [Peptide 1T-74]”, the “Target(s) (microorganism bound by the targeting peptide)” value is given as “S. pneumoniae”.

With “1T-75 (GVARGLQLGIKTRTQWGAATGAA; Peptide with targeting and/or antimicrobial activity) [Peptide 1T-75]”, the “Target(s) (microorganism bound by the targeting peptide)” value is “S. pneumoniae”.

For the substance “1T-76 (EMRLSKFFRDFILWRKK; Peptide with targeting and/or antimicrobial activity) [Peptide 1T-76]”, the “Target(s) (microorganism bound by the targeting peptide)” value was “S. pneumoniae”.

As to “1T-77 (EMRISRIILDFLFLRKK; Peptide with targeting and/or antimicrobial activity) [Peptide 1T-77]”, the “Target(s) (microorganism bound by the targeting peptide)” value is given as “S. pneumoniae”.

Regarding “1T-78 (FFKTIFVLILGALGVAAGLYIEKNYIDK; Peptide with targeting and/or antimicrobial activity) [Peptide 1T-78]”, the “Target(s) (microorganism bound by the targeting peptide)” value is “S. pneumoniae”.

As for “1T-79 (FGTPWSITNFWKKNFNDRPDFDSDRRRY; Peptide with targeting and/or antimicrobial activity) [Peptide 1T-79]”, the “Target(s) (microorganism bound by the targeting peptide)” value is on record as “S. pneumoniae”.

Regarding “1T-80 (GGNLGPGFGVIIP; Peptide with targeting and/or antimicrobial activity) [Peptide 1T-80]”, the “Target(s) (microorganism bound by the targeting peptide)” value was “S. pneumoniae”.

Turning to “1T-81 (AIATGLDIVDGKFDGYLWA; Peptide with targeting and/or antimicrobial activity) [Peptide 1T-81]”, the “Target(s) (microorganism bound by the targeting peptide)” value is listed as “S. pneumoniae”.

Turning to “1T-82 (FGVGVGIALFMAGYAIGKDLRKKFGKSC; Peptide with targeting and/or antimicrobial activity) [Peptide 1T-82]”, the “Target(s) (microorganism bound by the targeting peptide)” value was “S. pneumoniae”.

Regarding “1T-83 (QKPRKNETFIGYIQRYDIDGNGYQSLPCPQN; Peptide with targeting and/or antimicrobial activity) [Peptide 1T-83]”, the “Target(s) (microorganism bound by the targeting peptide)” value is “S. pneumoniae”.

For the substance “1T-84 (FRKKRYGLSILLWLNAFTNLVNSIHAFYMTLF; Peptide with targeting and/or antimicrobial activity) [Peptide 1T-84]”, the “Target(s) (microorganism bound by the targeting peptide)” value is recorded as “S. pneumoniae”.

For “1T-86 (HRKNPVLGVGRRHRAHNVA; Peptide with targeting and/or antimicrobial activity) [Peptide 1T-86]”, the “Target(s) (microorganism bound by the targeting peptide)” value was “S. mitis; also recorded: S. oralis; also recorded: S. salivarious”.

“1T-87 (EAVGQDLVDAHHP; Peptide with targeting and/or antimicrobial activity) [Peptide 1T-87]”: the “Target(s) (microorganism bound by the targeting peptide)” value is “S. mitis; also recorded: S. mutans; also recorded: S. oralis”.

As for “1T-89 (HEDDKRRGMSVEVLGFEVVQHEE; Peptide with targeting and/or antimicrobial activity) [Peptide 1T-89]”, the “Target(s) (microorganism bound by the targeting peptide)” value is given as “S. mitis; also recorded: S. mutans”.

Regarding “1T-90 (RNVIGQVL; Peptide with targeting and/or antimicrobial activity) [Peptide 1T-90]”, the “Target(s) (microorganism bound by the targeting peptide)” value is reported as “S. gordonii; also recorded: S. mitis; also recorded: S. mutans; also recorded: S. oralis; also recorded: S. sanguinis”.

For “1T-91 (TSVRPGAAGAAVPAGAAGAAGAGWRWP; Peptide with targeting and/or antimicrobial activity) [Peptide 1T-91]”, the “Target(s) (microorganism bound by the targeting peptide)” value is “S. mitis; also recorded: S. mutans; also recorded: S. oralis; also recorded: S. sanguinis”.

As to “1T-92 (GQDEGQRRAGVGEGQGVDG; Peptide with targeting and/or antimicrobial activity) [Peptide 1T-92]”, the “Target(s) (microorganism bound by the targeting peptide)” value is “S. mitis; also recorded: S. mutans”.

“1T-93 (AMRSVNQA; Peptide with targeting and/or antimicrobial activity) [Peptide 1T-93]”: the “Target(s) (microorganism bound by the targeting peptide)” value is recorded as “S. epidermidis; also recorded: S. gordonii; also recorded: S. mitis; also recorded: S. mutans; also recorded: S. oralis; also recorded: S. sanguinis”.

For “1T-94 (DQVAHSGDMLVQARRRDS; Peptide with targeting and/or antimicrobial activity) [Peptide 1T-94]”, the “Target(s) (microorganism bound by the targeting peptide)” value is “S. mitis; also recorded: S. mutans; also recorded: S. oralis”.

As for “1T-95 (GHLLRVGGRVGGVGGVAGACAQPFGGQ; Peptide with targeting and/or antimicrobial activity) [Peptide 1T-95]”, the “Target(s) (microorganism bound by the targeting peptide)” value was “S. gordonii; also recorded: S. mitis; also recorded: S. mutans; also recorded: S. oralis; also recorded: S. sanguinis”.

Turning to “1T-96 (VAGACAQPFGGQ; Peptide with targeting and/or antimicrobial activity) [Peptide 1T-96]”, the “Target(s) (microorganism bound by the targeting peptide)” value was “S. gordonii; also recorded: S. mitis; also recorded: S. mutans; also recorded: S. oralis; also recorded: S. sanguinis”.

Turning to “1T-99 (MKAWLGQ; Peptide with targeting and/or antimicrobial activity) [Peptide 1T-99]”, the “Target(s) (microorganism bound by the targeting peptide)” value was “S. gordonii; also recorded: S. mitis; also recorded: S. mutans; also recorded: S. oralis; also recorded: S. sanguinis”.

For the origin of these results see US9597407B2, “Targeted antimicrobial moieties” (C3 Jian, Inc., priority 2009, dated 2017).
